# Measured values as given in patent US9388405B2, “Method for identifying a subpopulation of mammalian cells with distinctive ribosome translation profiles” (priority 2009, dated 2016).
# Peptide text beside a SMILES is read from it. * marks the point of attachment. Cbz = O=C(OCc1ccccc1)*
# Columns and labels:
# [1] = test system: Class III HCT116 mTRdm-fLUC 7-5 and 12-16 cell lines; assay: Western blot of fLUC protein in 15-Assay cell extracts; assay type: cell-based, human
# Description: The remaining cell suspension was centrifuged as described above and the pellets stored at −70/−80° C. for subsequent protein extraction and Western blot analysis. For protein extraction, cells were thawed on ice and resuspended in equal volumes of the Suspension Buffer (100 mM NaCl, 10 mM TrisHCl [pH 7.6], 1 mM EDTA, 1 mg/mL aprotinin, 100 μg/mL PMSF) and the 2×SDS Buffer (100 mM TrisHCl (pH6.8), 4% SDS, 20% glycerol, 20 mM DTT, 10 mM EDTA, 2× Roche Protease Inhibitor Cocktail). The extracts were homogenized by vigorous mixing and boiling for 3 min. Additional homogenization (when needed) was achieved by passing samples through a syringe fitted with a 26 G needle. At this point, the extracts were either analyzed by SDS-PAGE gel or stored at −80° C.
# To produce a near quantitative Western blot analysis, equal protein concentrations are loaded on Western blots. […] The fLUC protein was detected using an anti-fLUC primary antibody (Sigma; 1:1000 dilution). After incubation with a primary antibody and extensive washing with 1×PBS-T, proteins binding the primary antibody were detected by incubation with a horseradish peroxidase (HRP) conjugated anti-rabbit secondary antibody (Amersham; 1:10000 dilution). Following incubation with the secondary antibody and extensive washing, reactive proteins were detected with the ECL reagent system (Amersham) as described by the vendor. […]
# [2] = test system: HEK293 CMV-fLuc subclone #3; assay: Updated 15-Assay / 21-Assay, cap-dependent translational responses; assay type: cell-based, human; conditions: 21-Assay, single-Toxin (Unknown), 6 hr
# Description: (§1) The dashed line represents the level of translational response in the untreated samples.
# Following 6 hr exposure to the compounds, cells were lysed and fLuc protein activity measured using a standard microplate reader assay. The triplicate plate reader values were averaged and expressed as the ratio of treated to untreated samples (Fold Induction). The dashed line represents the level of translational response in the untreated samples.
# The 21-Assay procedure employs the same standard toxins as the Updated 15-Assay protocol. The extra 6 assays involve an unknown or an uncharacterized compound and its pairwise combinations with the five toxins: Unknown, Unknown+TPA, Unknown+Colchcine, Unknown+Bortezomib (Velcade), Unknown+Low dose Calon, and Unknown+Hycamtin (Topotecan).
# Application of single-Toxin and two-Toxin assays in the Updated 15-Assay protocol was used to define cap-dependent translational responses in the HEK293 CMV-fLuc #3 subclone (FIG. 30A).
# The combinatorial process described in this example provides a system for testing translational regulation by unknown compounds. In this example, a 21-Assay setup is described that employs the single and pairwise combinatorial application of 5 toxins, as in a standard 15-Toxin assay, and the addition of a sixth substance. Inclusion of the sixth substance requires the expansion of the assay group to a total of 21 single- and two-Toxin assays. For this example, a control substance (taxol) was selected from the original 15-Assay system.
# [3] = test system: HEK293 hTRdm-fLuc #53 and HEK293 mTRdm-fLuc #12 subclones; assay: Microtubule disruptor single-Toxin dose response, cap-independent; assay type: cell-based, human; conditions: cap-dependent and cap-independent assays
# Description: The plate reader values were averaged and expressed as the ratio of treated to untreated samples (Fold Induction). Highly similar TR expression profile were produced by the human (hTRdm, top panel) and the mouse (mTRdm, bottom panel) TR cassettes. […] In contrast, significant increases in reporter activity were only observed at nocodazole concentrations greater than 250 nM. As in the cap-dependent assay, taxol-specific reporter increases were only observed at the 2.5 uM and 5 uM doses.
# Highly similar cap-independent translational profiles were produced by each TR-expressing cell line (FIGS. 29B and C). […] This contrasted with the nocodazole responses, where significant increases were observed only at concentrations larger than 250 nM. As before, taxol-specific translational increases were only observed at the 2.5 uM and 5 uM doses.
# HCT116 mTRdm-fLUC cells = assay: 5-Assay / 15-Assay toxin assays, fLUC plate reader (Fold Induction); assay type: cell-based, human; conditions: 5-Assay, 6 hr, HCT116 mTRdm-fLUC 12-16 subclone #38
# Description: The 5-Assay and 15-Assay procedures were applied to cellular pools using either of two growth procedures (e.g. a Cell Count or Confluence growth assay). For a Cell Count assay, cells from the P1 pool dish were counted and passed into a white clear bottom 96-well microtiter tray at a density of 25,000 cells per well; the leftover cells were passed into a passage 2 (P2) dish. Cells in the microtiter plate were allowed to grow for about 40 hr to achieve a ˜75% cell confluence prior to incubation with a toxic agent. Then cells in a microtiter plate were treated with complete growth medium containing either no toxin or an optimal toxin, defined as a single or multiple toxin assay that produces a maximal translational response (taken from Table 3) and incubated for 6 hours at 37° C. Each treatment was performed on triplicate wells.
# After toxin incubation, cells were examined by phase contrast microscopy for signs of detachment. If more than ˜10% of cells were detached, the 96-well plates were centrifuged at 1200 rpm for 3 min to pellet the detached cells. The media were removed and replaced with 50 μL of Cell Lysis Buffer (25 mM Tris-phosphate (pH7.8), 10% glycerol, 1% Triton X-100, 1 mg/ml BSA, 2 mM EGTA and 2 mM DTT). Cells were incubated with the Cell Lysis Buffer for 10 min at RT and cell lysis was verified using a phase contrast microscope. To ensure complete lysis, the lysates were vigorously agitated using the multichannel pipettor. Any air bubbles formed as a result of agitation were manually removed with a syringe needle. Luminescence was measured using the FLUOstar Optima (BMG Labtech) microplate reader. To develop luminescence, wells were injected with 5 μL of the D-luciferin solution dissolved in Reaction Buffer (25 mM Glycylglycine (pH 7.8), 15 mM MgSO4, 4 mM EDTA, 15 mM Potassium phosphate, 1 mM DTT, 1 mM Coenzyme A, 6.7 mM ATP and 3.35 mM D-luciferin). After 4 sec with shaking, luminescence values were measured using the lens filter at gains of 2500-4000.
# Light values were converted to Fold Induction using the ratio of values produced by treated and untreated cells. The maximal TR-specific translational response produced by the 5-Toxin or 15-Toxin assay was used to assign an optimal toxin assay (maximal translational response) which was subsequently used to screen subclones derived from this pool and to assign a Class designation. […]
# In one test, the 5-Assay procedure (Table 3) was applied to HCT116 mTRdm-fLUC 12-16 subclone #30 cells (FIG. 1A). […] Samples were then processed with Lysis buffer and read in a plate reader. […]
# Triplicate samples of HCT116 mTRdm-fLUC 12-16 Sub#30 cells were cultured with the two-Toxin assays using a standard plate reader protocol (FIG. 1C). […]
# [4] = test system: HEK293 mTRdm-fLuc subclone #13 and HEK293 hTRdm-gLuc subclone #79; assay: Updated 15-Assay / 21-Assay, TR translational responses (fLuc, gLuc); assay type: cell-based, human; conditions: 21-Assay, subclone #13, taxol as Unknown
# Description: as §1
# As before, secreted Gaussia Luciferase (gLUC) activity was measured in conditioned media 6 hr after drug application and protein activity expressed as the ratio of treated to untreated samples (Fold Induction). The dashed line represents the translational response in untreated cells.
# The dashed line represents the translational response produced by untreated cell samples.
# Following a 6 hr culture time, secreted gLuc activity was measured in conditioned media using a standard microplate reader assay and expressed as the ratio of treated to untreated samples (Fold Induction). The dashed line represents the level of translational response in the untreated samples. Given that the gLuc protein is secreted into the media, it escapes the cytoplasmic protein turnover processes acting on the fLUC protein. Therefore, any difference in the apparent TR response is a likely result of variation in reporter protein synthesis, secretion or reduced protein turnover.
# The 21-Assay procedure employs the same standard toxins as the Updated 15-Assay protocol. The extra 6 assays involve an unknown or an uncharacterized compound and its pairwise combinations with the five toxins: Unknown, Unknown+TPA, Unknown+Colchcine, Unknown+Bortezomib (Velcade), Unknown+Low dose Calon, and Unknown+Hycamtin (Topotecan). […]
# [5] = test system: MCF7 CMV-fLuc subclones #44 and #48; assay: PKC activator dose response, cap-dependent translation (fLuc); assay type: cell-based, human
# Description: Following 6 hr exposure to the Single-Toxin TPA assay, cells were lysed and fLuc protein activity measured using a standard microplate reader assay. The raw values were averaged and expressed as the ratio of treated to untreated samples (Fold Induction).
# Dashed lines represent translational response levels produced by a 100 nM TPA Single-Toxin assay. The Bryostatin 1 concentrations (top panel) encompassed the TPA concentrations used in FIG. 27A. […] The Bryostatin 2 dose response curve (bottom panel) employed higher drug concentrations (the maximal tested dose was 5× the largest TPA and Bryostatin 1 amounts). At the highest tested dose (2.5 uM), Bryostatin 2 produced fLuc activity consistent with the level observed with 100 nM TPA.
# In addition to measuring cap-dependent and cap-independent translational effects, Class-specific translational activity and toxin-defined actions, the previously described materials and methods allow for a variety of applications designed to detect and characterize agents and processes that regulate ribosome activity. In this example, comparative dose response assays were used to detect cap-dependent and cap-independent translational regulation in MCF7 cells. The basis for this application was the observation that distinct translational responses are produced by compounds at different doses. When an assortment of compounds act on a common molecular target, they can be grouped into a genus of related drugs. By comparing individual species of a compound genus over a defined dose range, differences in translational regulation can be defined. Furthermore, these translational differences can often be linked to biological differences.
# In this example (FIG. 27), the three PKC activators produced similar dose response trends in cap-dependent assays. […] However, macrolide lactones produced translational increases that were generally 60-70% of the TPA translational response (FIG. 27B). In fact, a 25 fold increase in Bryostatin 2 concentration (2.5 uM) was needed to produce a translational magnitude similar to the 100 nM TPA assay (FIG. 27B).
# [6] = test system: MCF7 mTRdm-fLuc subclones #8, #27, and #45; assay: PKC activator dose response, cap-independent TR translation (fLuc); assay type: cell-based, human
# Description: Following 6 hr culture with a TPA single-Toxin assay, cells were lysed and fLuc protein activity measured using a standard microplate reader assay. The plate reader values were averaged and expressed as the ratio of treated to untreated samples (Fold Induction).
# As with FIG. 27B, dashed lines represent translational response levels achieved by the 100 nM TPA assay in each cell line. […] A further difference between the cap-dependent and cap-independent assays was the observation that increased Bryostatin 2 concentrations (5× the maximal TPA dose) never produced fLUC activity equivalent to the 100 nM TPA assay. Thus, the Toxin Assay procedure can detect a statistically significant difference in cap-dependent and cap-independent translation in compounds that activate PKC activity.
# In the cap-independent assays, a similar dose response trend was observed over a 1 nM to 250 nM range with a translational peak at a 100 nM dose. However, the magnitude of the Bryostatin increases were generally 30% of 100 nM TPA response.
# Protein Kinase C (PKC) = conditions: cited from earlier work
compound,measurement,setting,value
"CC(C)C[C@@H](C=O)NC(=O)[C@H](CC(C)C)NC(=O)[C@H](CC(C)C)NC(=O)OCc1ccccc1 [MG132, Z-Leu-Leu-Leu-aldehyde] (Cbz-Leu-Leu-Leu-aldehyde)",fLUC protein levels by Western blot,"[1]; HCT116 mTRdm-fLUC 7-5, 15-Assay",significant fLUC protein levels
same,fLUC protein levels by Western blot,"[1]; HCT116 mTRdm-fLUC 12-16, 15-Assay, 6 hrs",extremely high protein levels
"CC(=O)O[C@H]1C(=O)[C@@]2(C)[C@H]([C@H](OC(=O)c3ccccc3)[C@]3(O)C[C@H](OC(=O)[C@H](O)[C@@H](NC(=O)c4ccccc4)c4ccccc4)C(C)=C1C3(C)C)[C@]1(OC(C)=O)CO[C@@H]1C[C@@H]2O [Taxol, Paclitaxel]",effect on cap-dependent fLuc protein production,[2],minimal effect on cap-dependent fluc protein production
same,response profile compared with other microtubule disruptor drugs,[3],smallest response profile of all the microtubule disruptor drugs tested
same,TR-specific toxin response,HCT116 mTRdm-fLUC cells,Maximal TR-specific toxin responses
same,effect on fLUC activity,[4],"small synergistic increases in fLUC activity in the single-Toxin and the colchicine+taxol, calcimycin+taxol, bortezomib+taxol two-Toxin assays, but not in the TPA+taxol or topotecan+taxol assays"
Bryostatin 2,fold increase in concentration needed for translational magnitude similar to the 100 nM TPA assay,[5],25 fold
same,dose producing fLuc activity consistent with the level observed with 100 nM TPA,"[5]; single-Toxin, highest tested dose",2.5 µM
same,% of the 100 nM TPA response,[6]; dose 2.5 uM,~50%
same,magnitude of translational response versus 100 nM TPA tests,[6]; single-Toxin,never reached the fLuc activity produced in 100 nM TPA tests
same,inhibition constant (Ki) relative to the Ki of Bryostatin 1,Protein Kinase C (PKC),10 ×
